For 4 molecules, TD50 and carcinogen call results are on record in PubChem BioAssay AID1745844 (Carcinogenic Potency Database (CPDB), 2022).

Calls of active or inactive are those of the source. No rule for the calls is given here.

This series relates to rodent lifetime carcinogenesis bioassay, tumor incidence TD50. The series can be described thus: chronic cancer bioassays in animals – CPDB, compiled studies (AID 1745844).

`Cc1ccc(C)c(OCCCC(C)(C)C(=O)O)c1`: the TD50 (mouse, strain Charles River CD1, females, in feed, site: any site (literature study), lesion: several types, types named in the paper, dosed 78 weeks, study length 78 weeks) was 1690 mg/kg/day (inactive); the TD50 (mouse, strain Charles River CD1, females, in feed, site: liver, lesion: hepatocellular adenoma, dosed 78 weeks, study length 78 weeks) was 6600 mg/kg/day (inactive); the TD50 (mouse, strain Charles River CD1, females, in feed, site: lung, lesion: several types, types named in the paper, dosed 78 weeks, study length 78 weeks) was 11800 mg/kg/day (inactive); the TD50 (mouse, strain Charles River CD1, males, in feed, site: liver, lesion: several types, types named in the paper, dosed 78 weeks, study length 78 weeks) was 1660 mg/kg/day (inactive); the TD50 (rat, strain Charles River CD (Sprague-Dawley), females, in feed, site: liver, lesion: hepatocellular carcinoma, dosed 104 weeks, study length 104 weeks) was 504 mg/kg/day (inactive); the TD50 (rat, strain Charles River CD (Sprague-Dawley), males, in feed, site: adrenal gland, lesion: pheochromocytoma, dosed 104 weeks, study length 104 weeks) was 85.9 mg/kg/day. The TD50 was 196 mg/kg/day (rat, strain Charles River CD (Sprague-Dawley), males, in feed, site: any site (literature study), lesion: benign tumor, dosed 104 weeks, study length 104 weeks); 202 mg/kg/day (rat, strain Charles River CD (Sprague-Dawley), males, in feed, site: any site (literature study), lesion: several types, types named in the paper, dosed 104 weeks, study length 104 weeks); 247 mg/kg/day (rat, strain Charles River CD (Sprague-Dawley), males, in feed, site: liver, lesion: hepatocellular carcinoma, dosed 104 weeks, study length 104 weeks); 161 mg/kg/day (rat, strain Charles River CD (Sprague-Dawley), males, in feed, site: pancreas, lesion: several types, types named in the paper, dosed 104 weeks, study length 104 weeks); 516 mg/kg/day (rat, strain Charles River CD (Sprague-Dawley), males, in feed, site: testis, lesion: interstitial-cell tumor, dosed 104 weeks, study length 104 weeks). The carcinogen call was “negative (inactive)” (mouse, strain Charles River CD1, males, in feed, site: any site (literature study), lesion: several types, types named in the paper, dosed 78 weeks, study length 78 weeks); “negative (inactive)” (mouse, strain Charles River CD1, males, in feed, site: lung, lesion: several types, types named in the paper, dosed 78 weeks, study length 78 weeks); “negative (inactive)” (rat, strain Charles River CD (Sprague-Dawley), females, in feed, site: any site (literature study), lesion: several types, types named in the paper, dosed 104 weeks, study length 104 weeks).

In the case of `S=C([S-])NCCNC(=S)[S-].[Zn+2]`, the TD50 was 1150 mg/kg/day (inactive) (mouse, strain B6AKF1, females, oral dosing, site: any site (literature study), lesion: several types, types named in the paper, dosed 76 weeks, study length 76 weeks); 1150 mg/kg/day (inactive) (mouse, strain B6AKF1, females, oral dosing, site: lung, lesion: adenoma, dosed 76 weeks, study length 76 weeks); 715 mg/kg/day (inactive) (mouse, strain B6AKF1, males, oral dosing, site: any site (literature study), lesion: several types, types named in the paper, dosed 76 weeks, study length 76 weeks); 903 mg/kg/day (inactive) (mouse, strain B6AKF1, males, oral dosing, site: liver, lesion: hepatoma, dosed 76 weeks, study length 76 weeks); 1150 mg/kg/day (inactive) (mouse, strain B6C3F1, females, oral dosing, site: any site (literature study), lesion: several types, types named in the paper, dosed 76 weeks, study length 76 weeks); 1150 mg/kg/day (inactive) (mouse, strain B6C3F1, females, oral dosing, site: lung, lesion: adenoma, dosed 76 weeks, study length 76 weeks). Moreover, the TD50 is, setting by setting: (mouse, strain B6C3F1, males, oral dosing, site: any site (literature study), lesion: several types, types named in the paper, dosed 76 weeks, study length 76 weeks) 189 mg/kg/day (inactive); (mouse, strain B6C3F1, males, oral dosing, site: liver, lesion: hepatoma, dosed 76 weeks, study length 76 weeks) 244 mg/kg/day (inactive); (mouse, strain CFLP, females, in feed, site: liver, lesion: hepatocellular adenoma, dosed 92 weeks, study length 94 weeks) 1730 mg/kg/day (inactive); (mouse, strain CFLP, females, in feed, site: liver, lesion: hepatocellular carcinoma, dosed 92 weeks, study length 94 weeks) 12600 mg/kg/day (inactive); (mouse, strain CFLP, females, in feed, site: lung, lesion: adenocarcinoma, dosed 92 weeks, study length 94 weeks) 6490 mg/kg/day (inactive); (mouse, strain CFLP, males, in feed, site: liver, lesion: hepatocellular adenoma, dosed 96 weeks, study length 96 weeks) 420 mg/kg/day (inactive). For the same molecule, the TD50 was 3700 mg/kg/day (inactive) (mouse, strain CFLP, males, in feed, site: liver, lesion: hepatocellular carcinoma, dosed 96 weeks, study length 96 weeks); 932 mg/kg/day (inactive) (mouse, strain CFLP, males, in feed, site: lung, lesion: adenoma, dosed 96 weeks, study length 96 weeks); 1190 mg/kg/day (inactive) (rat, strain Charles River CD (Sprague-Dawley), females, in feed, site: liver, lesion: hepatocellular carcinoma, dosed 112 weeks, study length 112 weeks); 27.9 mg/kg/day (inactive) (rat, strain Charles River CD (Sprague-Dawley), females, in feed, site: pituitary gland, lesion: adenoma, dosed 112 weeks, study length 112 weeks); 1080 mg/kg/day (inactive) (rat, strain Charles River CD (Sprague-Dawley), males, in feed, site: liver, lesion: hepatocellular carcinoma, dosed 119 weeks, study length 119 weeks); 255 mg/kg/day (rat, strain Mongrel, both sexes, by gavage, site: any site (literature study), lesion: several types, types named in the paper, dosed 95 weeks, study length 104 weeks). The carcinogen call by setting is: (mouse, strain B6AKF1, females, oral dosing, site: liver, lesion: hepatoma, dosed 76 weeks, study length 76 weeks) “negative (inactive)”; (mouse, strain B6AKF1, males, oral dosing, site: lung, lesion: adenoma, dosed 76 weeks, study length 76 weeks) “negative (inactive)”; (mouse, strain B6C3F1, females, oral dosing, site: liver, lesion: hepatoma, dosed 76 weeks, study length 76 weeks) “negative (inactive)”; (mouse, strain B6C3F1, males, oral dosing, site: lung, lesion: several types, types named in the paper, dosed 76 weeks, study length 76 weeks) “negative (inactive)”; (mouse, strain CFLP, females, in feed, site: any site (literature study), lesion: several types, types named in the paper, dosed 92 weeks, study length 94 weeks) “negative (inactive)”; (mouse, strain CFLP, females, in feed, site: lung, lesion: adenoma, dosed 92 weeks, study length 94 weeks) “negative (inactive)”. The carcinogen call (mouse, strain CFLP, males, in feed, site: any site (literature study), lesion: several types, types named in the paper, dosed 96 weeks, study length 96 weeks) is “negative (inactive)”; the carcinogen call (mouse, strain CFLP, males, in feed, site: lung, lesion: adenocarcinoma, dosed 96 weeks, study length 96 weeks) was “negative (inactive)”; the carcinogen call (rat, strain Charles River CD (Sprague-Dawley), females, in feed, site: liver, lesion: hepatocellular adenoma, dosed 112 weeks, study length 112 weeks) is “negative (inactive)”; the carcinogen call (rat, strain Charles River CD (Sprague-Dawley), males, in feed, site: liver, lesion: hepatocellular adenoma, dosed 119 weeks, study length 119 weeks) was “negative (inactive)”; the carcinogen call (rat, strain Charles River CD (Sprague-Dawley), males, in feed, site: pituitary gland, lesion: adenoma, dosed 119 weeks, study length 119 weeks) is “negative (inactive)”.

`Cc1ccccc1S(N)(=O)=O` yielded a TD50 (rat, strain Charles River CD (Sprague-Dawley), females, in feed, site: liver, lesion: Kupffer-cell sarcoma, dosed 142 weeks, study length 142 weeks) of 8520 mg/kg/day; a TD50 (rat, strain Charles River CD (Sprague-Dawley), females, in feed, site: liver, lesion: neoplastic nodule, dosed 142 weeks, study length 142 weeks) of 21700 mg/kg/day; a TD50 (rat, strain Charles River CD (Sprague-Dawley), females, in feed, site: mammary gland, lesion: adenocarcinoma, dosed 142 weeks, study length 142 weeks) of 12.2 mg/kg/day; a TD50 (rat, strain Charles River CD (Sprague-Dawley), males, in feed, site: liver, lesion: angiosarcoma, dosed 142 weeks, study length 142 weeks) of 17200 mg/kg/day; a TD50 (rat, strain Charles River CD (Sprague-Dawley), males, in feed, site: liver, lesion: neoplastic nodule, dosed 142 weeks, study length 142 weeks) of 35900 mg/kg/day; a TD50 (rat, strain Sprague-Dawley, both sexes, in feed, site: all sites, lesion: leukemia, dosed 133 weeks, study length 142 weeks) of 375 mg/kg/day. In addition, the TD50 is, setting by setting: (rat, strain Sprague-Dawley, both sexes, in feed, site: any site (literature study), lesion: malignant tumor, dosed 133 weeks, study length 142 weeks) 13300 mg/kg/day; (rat, strain Sprague-Dawley, both sexes, in feed, site: urinary bladder, lesion: several types, types named in the paper, dosed 133 weeks, study length 142 weeks) 3960 mg/kg/day. Besides, the carcinogen call (rat, strain Wistar, females, in drinking water, site: liver, lesion: hepatocellular carcinoma, dosed 102 weeks, study length 102 weeks) was “negative (inactive)”.

On to `CC(=O)Nc1ccc(N=Nc2cc(C)ccc2O)cc1`, for which the TD50 (mouse, strain B6C3F1, females, in feed, site: all sites, lesion: leukemia + lymphoma, dosed 103 weeks, study length 105 weeks) is 1510 mg/kg/day; the TD50 (mouse, strain B6C3F1, females, in feed, site: all sites, lesion: lymphoma, dosed 103 weeks, study length 105 weeks) was 1680 mg/kg/day; the TD50 (mouse, strain B6C3F1, females, in feed, site: any site (literature study), lesion: several types, types named in the paper, dosed 103 weeks, study length 105 weeks) stood at 769 mg/kg/day; the TD50 (mouse, strain B6C3F1, females, in feed, site: liver, lesion: hepatocellular adenoma + hepatocellular carcinoma + neoplastic nodule, dosed 103 weeks, study length 105 weeks) came to 1020 mg/kg/day; the TD50 (mouse, strain B6C3F1, females, in feed, site: liver, lesion: hepatocellular adenoma + hepatocellular carcinoma, dosed 103 weeks, study length 105 weeks) was 1020 mg/kg/day; the TD50 (mouse, strain B6C3F1, females, in feed, site: liver, lesion: hepatocellular adenoma, dosed 103 weeks, study length 105 weeks) is 1340 mg/kg/day. The TD50 (mouse, strain B6C3F1, males, in feed, site: any site (literature study), lesion: several types, types named in the paper, dosed 103 weeks, study length 104 weeks) amounted to 17200 mg/kg/day; the TD50 (mouse, strain B6C3F1, males, in feed, site: lung, lesion: alveolar/bronchiolar adenoma + alveolar/bronchiolar carcinoma, dosed 103 weeks, study length 104 weeks) was 2440 mg/kg/day; the TD50 (mouse, strain B6C3F1, males, in feed, site: lung, lesion: alveolar/bronchiolar adenoma, dosed 103 weeks, study length 104 weeks) is 2150 mg/kg/day (inactive); the TD50 (rat, strain Fischer 344, females, in feed, site: liver, lesion: hepatocellular adenoma + hepatocellular carcinoma + neoplastic nodule, dosed 103 weeks, study length 104 weeks) is 46800 mg/kg/day; the TD50 (rat, strain Fischer 344, males, in feed, site: liver, lesion: hepatocellular adenoma + hepatocellular carcinoma + neoplastic nodule, dosed 103 weeks, study length 104 weeks) amounted to 833 mg/kg/day; the TD50 (rat, strain Fischer 344, males, in feed, site: liver, lesion: hepatocellular carcinoma + neoplastic nodule, dosed 103 weeks, study length 104 weeks) was 833 mg/kg/day. Besides, the TD50 reads like this: (rat, strain Fischer 344, males, in feed, site: liver, lesion: neoplastic nodule, dosed 103 weeks, study length 104 weeks) 380 mg/kg/day; (rat, strain Fischer 344, males, in feed, site: stomach, lesion: all tumors, dosed 103 weeks, study length 104 weeks) 4090 mg/kg/day. Moreover, the carcinogen call (rat, strain Fischer 344, females, in feed, site: any site (literature study), lesion: several types, types named in the paper, dosed 103 weeks, study length 104 weeks) is “negative (inactive)”.
